Experimental data: patent publication US9688722B2, “Substrates and inhibitors of prolyl oligopeptidase and methods of use” (The Board of Regents of the University of Oklahoma, priority 2012, dated 2017)
Entries after “also recorded” stand apart in the source; their conditions may differ.

Tests used:
[1] = tested on: human lung adenocarcinoma epithelial cells; assay: Lung cancer xenografts in nude mice; assay type: in vivo
Method: Mice were given a 50 μl injection into each hind leg consisting of human lung adenocarcinoma epithelial cells (2×10^6 cells) suspended in Matrigel™. After ten days the tumors had grown to an estimated 40 mm^3, so M83 treatment was initiated (day 0 in graph). For the M83 treatment group, mice were given a daily intraperitoneal injection of 26.5 micrograms of M83 dissolved in 20 microliters of sterile saline. The mice of the control group were given an intraperitoneal injection of 20 microliters of sterile saline. […] The treatment groups consisted of three mice each with two tumors per mouse.

[2] = biological target: T1, FAP activity on WI-38 fibroblast surfaces (Homo sapiens, UniProt Q12884); assay: Whole cell activity assay, cleavage of C95 on WI-38 fibroblasts; assay type: cell-based; settings: substrate C95, inhibitor 10 μM, 1 μM or 100 nM added at two hours
T1 construct: host or cells: WI-38 fibroblasts
T1 sequence (Q12884 1-760): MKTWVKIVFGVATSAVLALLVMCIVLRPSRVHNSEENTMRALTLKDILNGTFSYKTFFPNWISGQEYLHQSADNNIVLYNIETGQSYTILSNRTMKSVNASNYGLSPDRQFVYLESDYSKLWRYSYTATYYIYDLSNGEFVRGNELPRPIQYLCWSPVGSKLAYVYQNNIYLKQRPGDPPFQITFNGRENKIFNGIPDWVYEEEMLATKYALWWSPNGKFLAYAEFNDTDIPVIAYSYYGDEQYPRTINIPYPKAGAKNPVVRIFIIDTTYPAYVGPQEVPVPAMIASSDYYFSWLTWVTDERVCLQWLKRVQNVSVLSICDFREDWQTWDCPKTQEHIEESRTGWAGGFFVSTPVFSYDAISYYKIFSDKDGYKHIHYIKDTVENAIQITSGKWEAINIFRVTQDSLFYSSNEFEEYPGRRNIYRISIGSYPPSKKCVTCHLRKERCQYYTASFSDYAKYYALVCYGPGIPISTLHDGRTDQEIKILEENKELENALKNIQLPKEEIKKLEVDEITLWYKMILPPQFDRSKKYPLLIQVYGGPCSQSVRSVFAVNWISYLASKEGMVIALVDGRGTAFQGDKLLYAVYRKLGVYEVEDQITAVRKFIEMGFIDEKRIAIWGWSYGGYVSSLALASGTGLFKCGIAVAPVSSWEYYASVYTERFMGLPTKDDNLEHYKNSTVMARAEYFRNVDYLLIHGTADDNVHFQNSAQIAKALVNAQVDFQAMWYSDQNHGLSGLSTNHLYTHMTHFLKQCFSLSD
Method: WI-38 fibroblasts were grown on plastic, washed once with HBSS, after which the M83 inhibitor 10 μM in HBSS was added at zero time to one set, and buffer only to the other four sets. The fluorescent substrate C95 was added to all sets of wells and Δ fluorescence/min, reflecting cleavage of C95 over time, was allowed to proceed for two hours when 10 μM, 1 μM or 100 nM of the M83 inhibitor was added to each of three sets of wells.
Whole cell activity assays: Cells were cultured in normal growth media unless otherwise stated. […] Ten μl of fluorescent substrate, C95 were added to give a final concentration of 125 μM, and fluorescence was measured with time at 360/460 nm excitation/emission wavelengths using an FL600 microplate fluorescence reader (Bio-tek Instruments). Fluorescence units were converted to FAP units/100,000 cells by using a conversion factor determined from an APCE standard curve of prolyl-specific endopeptidase activity, such that 1 FAP unit is equivalent to the fluorescence produced by 1 ng of APCE/min. Since FAP and POP cleave the C95 substrate at an equivalent rate, both FAP and POP activities are expressed as FAP units in all figures.

[3] = tested on: HCT116 human colon cancer xenografts; assay: HCT116 human colon cancer xenografts in immunodeficient mice; assay type: in vivo; settings: 28-day treatment period
[4] = biological target: T2, APCE/FAP (Homo sapiens, UniProt Q12884); assay: APCE/FAP inhibition constants (Ki) with Tic-Pro-AFC substrate; assay type: biochemical; settings: substrate Tic-Pro-AFC
T2 construct: absence of an about 26-residue amino terminal peptide constituting the transmembrane and intracytosolic domains; from tissue
T2 sequence (Q12884 24-760 limits assumed): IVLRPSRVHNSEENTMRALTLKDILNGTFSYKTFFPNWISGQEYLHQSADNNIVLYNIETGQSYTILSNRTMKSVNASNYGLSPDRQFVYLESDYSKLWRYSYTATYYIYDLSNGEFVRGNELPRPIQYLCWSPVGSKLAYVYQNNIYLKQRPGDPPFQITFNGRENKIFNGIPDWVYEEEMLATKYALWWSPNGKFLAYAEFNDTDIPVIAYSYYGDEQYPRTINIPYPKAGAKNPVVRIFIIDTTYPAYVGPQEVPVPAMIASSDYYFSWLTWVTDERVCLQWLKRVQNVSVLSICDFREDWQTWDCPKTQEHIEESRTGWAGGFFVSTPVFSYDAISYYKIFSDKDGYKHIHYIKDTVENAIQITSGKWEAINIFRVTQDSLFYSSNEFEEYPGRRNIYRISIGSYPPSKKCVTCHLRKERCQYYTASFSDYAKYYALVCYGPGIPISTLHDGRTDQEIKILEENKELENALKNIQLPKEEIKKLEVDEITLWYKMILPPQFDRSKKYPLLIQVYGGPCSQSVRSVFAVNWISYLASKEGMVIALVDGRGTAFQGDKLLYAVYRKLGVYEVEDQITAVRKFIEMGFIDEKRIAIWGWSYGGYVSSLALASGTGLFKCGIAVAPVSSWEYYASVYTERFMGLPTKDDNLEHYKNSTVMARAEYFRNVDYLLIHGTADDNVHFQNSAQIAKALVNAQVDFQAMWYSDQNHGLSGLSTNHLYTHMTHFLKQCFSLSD
Method: For accurate assessment of kinetic parameters, saturating concentrations of substrate were used. For standard curves, dilutions of AFC (7-amino-4-trifluoromethylcoumarin) were prepared in the same assay buffer and corresponding fluorescence was measured.

## CC(=O)N[C@@H](CCCNC(=N)N)C(=O)NCCOCCOCC(=O)N[C@H](C)C(=O)N1CCC[C@H]1B(O)O [Compound M83, acetyl-Arg-AEEA-(D)Ala-(L)boroPro]
[1]; daily intraperitoneal 26.5 micrograms, nude mice, versus saline control
  tumor growth: failed to progress
[1]; day 28 of treatment versus day zero
  average tumor volume: no greater than on day zero
[1]; six tumors in treatment group, 28 days
  tumors completely disappeared: one of the six tumors
[2]
  inhibition of FAP proteolytic activity on the cell surface: instantly, and essentially totally, inhibited; also recorded: instantly abolished endopeptidase activity
[3]
  effectiveness on cancer growth relative to J94: slightly more effective than this
[4]
  Ki: 5.7 nM
